From US20240067932A1, “METHODS AND COMPOSITIONS FOR GENERATING HEMOGENIC ENDOTHELIAL CELLS FROM PLURIPOTENT STEM CELLS” (Trailhead Biosystems Inc., priority 2022, published 2024)

Experiments:
Type in all cases: cell-based, human
[1] = test system: early mesoderm progenitors; test: Factor criticality / dynamic profile analysis of gene expression on removal of a finalized effector; set-up: expression level of GATA2 / expression level of TAL1 / expression level of CD44 / expression level of KDR / expression level of CD34 / expression level of CD31: unit not given here
[2] = test system: early mesoderm progenitors; test: 8-factor HD-DoE experiments optimized for maximum GATA2 expression (qPCR, partial least squares models)
[3] = test system: early mesoderm progenitors; test: as above; conditions: for factor contribution (maximum expression of GATA2): first model, FIG. 2, factors Forskolin, VEGF, FGF2, Albumax, SUN1162, Hydrocortisone, SB341542, Resveratrol, 3 days after stage 1
Text: The early mesoderm progenitors were used for further differentiation along the endothelial lineage using a High-Dimensional Design of Experiments (HD-DoE) approach to simultaneously test multiple process inputs (e.g., small molecule agonists or antagonists) on output responses, such as gene expression. Based on predicted conditions that maximize expression of hemogenic endothelial enriched genes such as CD31, CD34, CD143, CD309, GATA2, Fill and RUNX1, vWF, a complex recipe was developed for generating differentiated hemogenic endothelial cells from the early mesoderm progenitors, composed of 8 agents as shown below in Table 1:
First, undifferentiated iPSC were grown for 48 h in CDM2 media containing 6 uM CHIR99021 (referred to herein as stage 1). Then stage 2 media was engineered. The basis of this was an 8-factor HD-DoE experiment with focus on differentiation of cells toward the hemogenic endothelial lineage for an additional 3 days after termination of stage 1 treatment. To test the effectors, 48 different combinations of effectors generated using Design-of-Experiments compression through D-optimality were robotically prepared. The effector combinations were prepared in a basal media and were subsequently added to the cells, which were then allowed to differentiate. Three days later, RNA extraction was performed, and gene expression was obtained using quantitative PCR analysis. The data were normalized and modeled using partial least squares regression analysis to the effector design, resulting in the generation of gene-specific models, which after model tuning for maximal Q2 predictive power, provided explanation of the effectors ability to control the expression of individual genes, combinatorically, and individually. Solutions within the tested space could then be explored to address desirability. For stage 2, conditions were created inducing the expression of GATA2, a transcription factor identified as a master regulator of hematopoiesis. GATA2 promotes the generation of HECs and facilitates endothelial-to-hematopoietic transition (EHT). GATA2 also suppresses cardiac differentiation at the mesoderm stage, directing cells to a hematopoietic fate. Optimizing for maximal expression of GATA2 led to a robust solution. […] In this model, high levels of KDR, important receptor for VEGF signaling, were observed. […] This model was derived from initial testing of eight factors including: Forskolin, VEGF, FGF2, Albumax, SUN1162, Hydrocortisone, SB341542, and Resveratrol. […] Factors with low contribution were excluded.

[4] = model FIG. 8, named factor removed, others kept
[5] = second model, FIG. 3, factors CHIR, VEGF, FGF2, TTNBP, AGN194310, Y27632, Thymosin-β4, heparin
[6] = model FIG. 7 (VEGF, Forskolin, FGF2), factor present
[7] = model FIG. 7, named factor removed, others kept
[8] = model FIG. 9, named factor removed
[9] = fifth model, FIG. 6, factors VPA, SCF, BMP4, EFG, FLT3L, Arginine, Retinoic Acid, VEGF
[10] = fourth model, FIG. 5, factors VEGF, FGF2, Sphingosine 1 phosphate, V11298, Pyrintegrin, Erythropoietin, L-ascorbic acid, XAV939
[11] = model FIG. 10, named factor removed
[12] = model FIG. 11, named factor removed

For “Thymosin-β4: Actin binding protein (SDKPDMAEIEKFDKSKLKKTETQEKNPLPSKETIEQEKQAGES; UniProt P62328 2-44, looked up)”, the “expression level of GATA2” value ([1]; model FIG. 8 (VEGF, FGF2, Thymosin-β4), factor present) was 633, the “expression level of CD44” value ([1]; model FIG. 8, factor present) was 748 and the “expression level of KDR” value ([1]; model FIG. 8, factor present) was 40660. For the same compound, the “expression level of CD44” value [1, 4] was 626, the “expression level of GATA2” value [1, 4] was 437 and the “expression level of KDR” value [1, 4] was 37788. The “factor contribution (maximum expression of GATA2)” value [2, 5] was 16.
In the case of VEGF, the “expression level of GATA2” value [1, 6] is reported as 583, the “expression level of CD31” value ([1]; model FIG. 7, factor present) is reported as 879 and the “expression level of CD34” value ([1]; model FIG. 7, factor present) is reported as 2350. For the same compound, the “expression level of CD44” value ([1]; model FIG. 7, factor present) was 578, the “expression level of FLI1 (Fill [sic])” value ([1]; model FIG. 7, factor present) was 3971 and the “expression level of KDR” value ([1]; model FIG. 7, factor present) was 33751. The “expression level of TAL1” value ([1]; model FIG. 7, factor present) was 370, the “expression level of CD31” value [1, 7] was 2 and the “expression level of CD34” value [1, 7] was 150. The “expression level of CD44” value [1, 7] was 349, the “expression level of FLI1 (Fill [sic])” value [1, 7] was 241 and the “expression level of GATA2” value [1, 7] was 236. The “expression level of KDR” value [1, 7] was 16856, the “expression level of TAL1” value [1, 7] was 18 and the “effect on expression of hemogenic endothelial genes analyzed (in words)” value (“effect on expression” below) ([1]; model FIG. 8) was “critical for increasing the expression of all hemogenic endothelial genes analyzed”. For the same compound, the “expression level of CD31” value ([1]; model FIG. 9, factor present) was 869, the “expression level of CD34” value ([1]; model FIG. 9, factor present) was 2341 and the “expression level of FLI1 (Fill [sic])” value ([1]; model FIG. 9, factor present) was 2292. The “expression level of KDR” value ([1]; model FIG. 9, factor present) was 7518, the “expression level of CD31” value [1, 8] was 262 and the “expression level of CD34” value [1, 8] was 868. For the same compound, the “expression level of FLI1 (Fill [sic])” value [1, 8] was 974, the “expression level of KDR” value [1, 8] was 6209 and the “effect on expression” value ([1]; model FIG. 10) was “critical for expression of all hemogenic endothelial genes analyzed”. For the same compound, the “effect on expression” value ([1]; model FIG. 11) was “critical for expression of all hemogenic endothelial genes analyzed”, the “factor contribution (maximum expression of GATA2)” value [3] was 46 and the “effect towards GATA2 induction in 4 out of 5 models” value ([2]; across models) was “strong positive effect towards GATA2 induction”. For the same compound, the “factor contribution (maximum expression of GATA2)” value [2, 9] was 22, the “factor contribution (maximum expression of GATA2)” value [2, 10] was 22 and the “factor contribution (maximum expression of GATA2)” value [2, 5] was 25.
With `c1ccc2c(Oc3nc(Nc4ccc(N5CCOCC5)cc4)c4ncn(C5CCCCC5)c4n3)cccc2c1` [Purmorphamine, reference compound] the “expression level of GATA2” value ([1]; model FIG. 9 (Purmorphamine, VEGF, B-27 kept), factor present) was 275, the “expression level of CD34” value ([1]; model FIG. 9, factor present) was 3230 and the “expression level of FLI1 (Fill [sic])” value ([1]; model FIG. 9, factor present) was 3571. For the same compound, the “expression level of KDR” value ([1]; model FIG. 9, factor present) was 13612, the “expression level of TAL1” value ([1]; model FIG. 9, factor present) was 1008 and the “expression level of CD34” value [1, 8] was 2369. The “expression level of FLI1 (Fill [sic])” value [1, 8] was 2324, the “expression level of GATA2” value [1, 8] was 105 and the “expression level of KDR” value [1, 8] was 7614. The “expression level of TAL1” value [1, 8] was 428 and the “factor contribution (maximum expression of GATA2)” value ([2]; third model, FIG. 4, factors YHHU, DBZ, Purmorphamine, SANT1, LPA, Yodal, VEGF, B-27) was 20.
In the case of `C/C(=C\c1ccc(C(=O)O)cc1)c1ccc2c(c1)C(C)(C)CCC2(C)C` [TTNBP], the “factor contribution (maximum expression of GATA2)” value [2, 5] is reported as “relatively low factor contribution”.
In the case of “FGF2: FGFR agonist (e.g., recombinant human FGF2)”, the “expression level of GATA2” value [1, 6] is reported as 583, the “expression level of CD31” value ([1]; model FIG. 7, factor present) is reported as 879 and the “expression level of CD44” value ([1]; model FIG. 7, factor present) is reported as 576. The “expression level of FLI1 (Fill [sic])” value ([1]; model FIG. 7, factor present) was 3970, the “expression level of KDR” value ([1]; model FIG. 7, factor present) was 33760 and the “expression level of CD31” value [1, 7] was 505. For the same compound, the “expression level of CD44” value [1, 7] was 274, the “expression level of FLI1 (Fill [sic])” value [1, 7] was 3374 and the “expression level of GATA2” value [1, 7] was 458. The “expression level of KDR” value [1, 7] was 23868, the “expression level of CD31” value ([1]; model FIG. 8, factor present) was 807 and the “expression level of CD44” value ([1]; model FIG. 8, factor present) was 748. The “expression level of KDR” value ([1]; model FIG. 8, factor present) was 40630, the “expression level of CD31” value [1, 4] was 677 and the “expression level of CD44” value [1, 4] was 626. For the same compound, the “expression level of KDR” value [1, 4] was 29902, the “expression level of GATA2” value ([1]; model FIG. 10 (XAV939, VEGF, FGF2, L-ascorbic acid kept), factor present) was 992 and the “expression level of CD31” value ([1]; model FIG. 10, factor present) was 6619. For the same compound, the “expression level of CD34” value ([1]; model FIG. 10, factor present) was 7050, the “expression level of CD44” value ([1]; model FIG. 10, factor present) was 838 and the “expression level of FLI1 (Fill [sic])” value ([1]; model FIG. 10, factor present) was 13094. For the same compound, the “expression level of KDR” value ([1]; model FIG. 10, factor present) was 36067, the “expression level of TAL1” value ([1]; model FIG. 10, factor present) was 1265 and the “expression level of CD31” value [1, 11] was 2002. The “expression level of CD34” value [1, 11] was 6550, the “expression level of CD44” value [1, 11] was 466 and the “expression level of FLI1 (Fill [sic])” value [1, 11] was 5406. For the same compound, the “expression level of GATA2” value [1, 11] was 397, the “expression level of KDR” value [1, 11] was 22308 and the “expression level of TAL1” value [1, 11] was 866. For the same compound, the “factor contribution in 2 of 3 models” value ([3]; across models) was over 16, the “factor contribution (maximum expression of GATA2)” value [3] was 17 and the “factor contribution (maximum expression of GATA2)” value [2, 10] was 22. For the same compound, the “factor contribution (maximum expression of GATA2)” value [2, 5] was “low factor contribution”.
For `CC1=C(/C=C/C(C)=C/C=C/C(C)=C/C(=O)O)C(C)(C)CCC1` [Retinoic Acid, Retinoic acid, reference compound], the “expression level of GATA2” value ([1]; model FIG. 11 (Retinoic Acid, BMP4, VEGF), factor present) was 519, the “expression level of CD31” value ([1]; model FIG. 11, factor present) was 768 and the “expression level of CD34” value ([1]; model FIG. 11, factor present) was 3971. For the same compound, the “expression level of FLI1 (Fill [sic])” value ([1]; model FIG. 11, factor present) was 3250, the “expression level of TAL1” value ([1]; model FIG. 11, factor present) was 490 and the “expression level of CD31” value [1, 12] was 486. The “expression level of CD34” value [1, 12] was 2902, the “expression level of FLI1 (Fill [sic])” value [1, 12] was 2936 and the “expression level of GATA2” value [1, 12] was 281. The “expression level of TAL1” value [1, 12] was 235 and the “factor contribution (maximum expression of GATA2)” value [2, 9] was 22.
In the case of `C=C[C@@]1(C)CC(=O)[C@]2(O)[C@@]3(C)[C@@H](O)CCC(C)(C)[C@@H]3[C@H](O)[C@H](OC(C)=O)[C@@]2(C)O1` [Forskolin, reference compound], the “expression level of GATA2” value [1, 6] is reported as 583, the “expression level of CD34” value ([1]; model FIG. 7, factor present) is reported as 2350 and the “expression level of CD44” value ([1]; model FIG. 7, factor present) is reported as 578. For the same compound, the “expression level of FLI1 (Fill [sic])” value ([1]; model FIG. 7, factor present) was 3971, the “expression level of KDR” value ([1]; model FIG. 7, factor present) was 33751 and the “expression level of TAL1” value ([1]; model FIG. 7, factor present) was 370. The “expression level of CD34” value [1, 7] was 2240, the “expression level of CD44” value [1, 7] was 540 and the “expression level of FLI1 (Fill [sic])” value [1, 7] was 3740. The “expression level of GATA2” value [1, 7] was 373, the “expression level of KDR” value [1, 7] was 32839 and the “expression level of TAL1” value [1, 7] was 318. For the same compound, the “factor contribution (maximum expression of GATA2)” value [3] was 27.
